Here are results for 14 compounds from patent US7700638B2, “1,5,7-trisubstituted benzimidazole derivatives and their use for modulating the GABAA receptor complex” (N. V. Organon, priority 2003, dated 2010).

Where a name gives a salt, the structure may show the parent alone.

The assay has as its target GABA recognition site and the benzodiazepine modulatory unit (GABAA receptor complex), cerebral cortex membranes. Briefly: In vitro inhibition of 3H-flunitrazepam (3H-FNM) binding. Further details: species or system rat. The following applies: inhibition of specific binding of 3H-FNM (1 nM), cerebral cortex membranes from male Wistar rats, 40 min at 2° C. As for the experimental part:
In vitro Inhibition of ^3H-flunitrazepam (^3H-FNM) Binding
The GABA recognition site and the benzodiazepine modulatory unit can selectively be labelled with ^3H-flunitrazepam.
Preparations are performed at 0-4° C. unless otherwise indicated. Cerebral cortex from male Wistar rats (150-200 g) is homogenised for 5-10 sec in 20 ml […] (30 mM, pH 7.4) using an Ultra-Turrax homogeniser. The suspension is centrifuged at 27,000×g for 15 min and the pellet is washed three times with buffer (centrifuged at 27,000×g for 10 min). The washed pellet is homogenized in 20 ml of buffer and incubated on a water bath (37° C.) for 30 min to remove endogenous GABA and then centrifuged for 10 min at 27,000×g. The pellet is then homogenized in buffer and centrifuged for 10 min at 27,000×g. The final pellet is resuspended in 30 ml buffer and the preparation is frozen and stored at −20° C.
The membrane preparation is thawed and centrifuged at 2° C. for 10 min at 27,000×g. The pellet is washed twice with 20 ml 50 mM Tris-citrate, pH 7.1 using an Ultra-Turrax homogeniser and centrifuged for 10 min at 27,000×g. The final pellet is resuspended in 50 mM Tris-citrate, pH 7.1 (500 ml buffer per g of original tissue), and then used for binding assays. Aliquots of 0.5 ml tissue are added to 25 μl of test solution and 25 μl of ^3H-FNM (1 nM, final concentration), mixed and incubated for 40 min at 2° C. Non-specific binding is determined using Clonazepam (1 μM, final concentration). After incubation the samples are added 5 ml of ice-cold buffer and poured directly onto Whatman GF/C glass fibre filters under suction and immediately washed with 5 ml ice-cold buffer. The amount of radioactivity on the filters is determined by conventional liquid scintillation counting. Specific binding is total binding minus non-specific binding.
25-75% inhibition of specific binding must be obtained, before calculation of an IC50.
The test value will be given as IC50 (the concentration (μM) of the test substance which inhibits the specific binding of ^3H-FNM by 50%).
Co is specific binding in control assays, and
Cx is the specific binding in the test assay.
(The calculations assume normal mass-action kinetics).

For the compound `COC(=O)C=Cc1cc(C(F)(F)F)cc2ncn(-c3ccccc3)c12` [Example 57, 3-(3-Phenyl-6-trifluoromethyl-3H-benzimidazol-4-yl)acrylic acid methyl ester], the 50% inhibitory concentration (IC50) (in general, the concentration needed to halve the response being measured) came to 46 nM.

With `CCOC(=O)c1cc(-c2cccc(CN3CCN(C)CC3)c2)c2c(c1)ncn2-c1ccccc1` [Example 33, 5-Ethoxycarbonyl-7-(3-((1-methylpiperazin-4-yl)methyl)phenyl)-1-phenylbenzimidazole], the IC50 came out at 19 nM. Against the preceding compound, the IC50 is about 2.4-fold lower.

`N#Cc1cccc(C=Nc2cc(C(F)(F)F)cc3ncn(-c4ccccc4)c23)c1` [Example 10, 7-(N-(3-cyanobenzylidene)amino)-1-phenyl-5-trifluoromethylbenzimidazole] showed an IC50 of 18 nM.

For the compound `CN(CCC#N)CCCCc1cc(C(F)(F)F)cc2ncn(-c3ccccc3)c12` [Example 88, 7-(4-((N-(2-Cyanoethyl)-N-methyl)amino)-1-butyl)-1-phenyl-5-trifluoromethylbenzimidazole trifluoroacetic acid salt], the IC50 was determined as 100 nM. This IC50 is about 5.6-fold higher than that of the compound before.

`CCN(CC)Cc1ccc(-c2cc(C#N)cc3ncn(-c4ccccc4)c23)cc1` [Example 41, 5-Cyano-7-(4-diethylaminomethylphenyl)-1-phenylbenzimidazole trifluoroacetic acid salt] showed an IC50 of 27 nM.

`CCN(CC)C(=O)C=Cc1cc(C(F)(F)F)cc2ncn(-c3ccccc3)c12` [Example 65, N,N-Diethyl-3-(3-phenyl-6-trifluoromethyl-3H-benzimidazol-4-yl)acrylamide] yielded an IC50 of 20 nM.

On to `OCc1cccc(-c2cc(C(F)(F)F)cc3ncn(-c4ccccc4)c23)c1` [Example 12, 7-(3-(Hydroxymethyl)phenyl)-1-phenyl-5-trifluoromethylbenzimidazole], for which the IC50 stood at 30 nM.

Take `COc1ccc(-c2cc(C#N)cc3ncn(-c4ccccc4)c23)cc1` [Example 23, 5-Cyano-7-(4-methoxyphenyl)-1-phenylbenzimidazole]: the IC50 was determined as 38 nM.

For `FC(F)(F)c1cc(C#CCN2CC=CCC2)c2c(c1)ncn2-c1ccccc1` [Example 92, 1-Phenyl-7-(3-(1-(1,2,3,6-tetrahydropyridinyl))prop-1-ynyl)-5-trifluoromethylbenzimidazole], the 50% inhibitory concentration (IC50) amounted to 48 nM.

`Nc1cccc(-c2cc(C=NO)cc3ncn(-c4ccccc4)c23)c1` [Example 6, 7-(3-Aminophenyl)-5-formyl-1-phenylbenzimidazole oxime] returned a half-maximal inhibitory concentration (IC50) of 4.2 nM.

`CCN(CC)C(=O)CCc1cc(C(F)(F)F)cc2ncn(-c3ccccc3)c12` [Example 81, N,N-Diethyl-3-(3-Phenyl-6-trifluoromethyl-3H-benzimidazol-4-yl)propionamide] registered an IC50 of 38 nM. This IC50 is about 9-fold higher than that of the compound before.

`OCc1cc(-c2cccc(OC(F)(F)F)c2)c2c(c1)ncn2-c1ccccc1` [Example 51, 5-(Hydroxymethyl)-1-phenyl-7-(3-trifluoromethoxyphenyl)benzimidazole] had an IC50 of 12 nM.

Compound `FC(F)(F)c1cc(C#CCN2CCOCC2)c2c(c1)ncn2-c1ccccc1` [Example 80, 7-(3-(4-Morpholino)prop-1-ynyl)-1-phenyl-5-trifluoromethylbenzimidazole trifluoroacetic acid salt] showed a half-inhibitory concentration (IC50) of 180 nM. This IC50 is about 15-fold higher than that of the compound before.

On to “7-[1-(3-Dimethylamino)pyrrolidinyl]-1-phenyl-5-trifluoromethylbenzimidazole trifluoroacetic acid salt [Example 94]”, for which the IC50 turned out to be 90 nM. Compared with the last compound, the IC50 is about 2-fold lower.
